In patent US11739098B2 (BRISTOL-MYERS SQUIBB COMPANY, priority 2017, dated 2023):

What was measured:
Type in all cases: cell-based
[1] = biological target: T1, human TLR9 (Homo sapiens, UniProt Q9NR96); test: TLR9 inhibition reporter assay (HEK-Blue cells, SEAP reporter, ODN2006 stimulation); settings: HEK-Blue cells overexpressing human TLR9, SEAP reporter, ODN2006 5 nM
T1 construct: host or cells: HEK-Blue cells (HEK293-derived reporter line)
T1 sequence (Q9NR96 26-1032): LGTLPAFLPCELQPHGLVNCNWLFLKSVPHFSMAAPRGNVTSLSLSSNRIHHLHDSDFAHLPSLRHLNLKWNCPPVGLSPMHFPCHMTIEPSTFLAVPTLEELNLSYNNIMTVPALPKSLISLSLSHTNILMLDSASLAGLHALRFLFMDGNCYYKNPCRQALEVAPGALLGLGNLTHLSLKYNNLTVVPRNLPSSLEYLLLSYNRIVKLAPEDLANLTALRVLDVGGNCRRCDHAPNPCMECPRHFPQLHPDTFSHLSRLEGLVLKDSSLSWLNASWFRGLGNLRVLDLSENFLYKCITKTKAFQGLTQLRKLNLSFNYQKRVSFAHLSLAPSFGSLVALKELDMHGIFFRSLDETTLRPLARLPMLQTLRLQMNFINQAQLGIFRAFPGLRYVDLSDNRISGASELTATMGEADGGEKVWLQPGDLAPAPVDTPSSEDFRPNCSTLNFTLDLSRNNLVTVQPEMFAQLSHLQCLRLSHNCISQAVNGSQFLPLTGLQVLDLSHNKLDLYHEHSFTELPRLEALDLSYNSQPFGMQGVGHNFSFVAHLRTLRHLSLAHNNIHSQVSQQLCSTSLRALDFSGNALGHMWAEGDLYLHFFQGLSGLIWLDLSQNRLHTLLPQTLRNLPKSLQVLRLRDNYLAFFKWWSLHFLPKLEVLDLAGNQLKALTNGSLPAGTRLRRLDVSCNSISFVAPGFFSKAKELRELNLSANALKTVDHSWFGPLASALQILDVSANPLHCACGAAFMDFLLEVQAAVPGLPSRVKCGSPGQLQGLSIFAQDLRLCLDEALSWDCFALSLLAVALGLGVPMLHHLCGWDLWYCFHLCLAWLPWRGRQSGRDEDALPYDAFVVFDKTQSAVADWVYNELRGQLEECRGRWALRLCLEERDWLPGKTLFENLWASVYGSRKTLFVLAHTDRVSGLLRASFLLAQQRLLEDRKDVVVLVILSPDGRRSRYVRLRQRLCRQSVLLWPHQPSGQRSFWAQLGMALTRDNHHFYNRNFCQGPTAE
Outline: (§1)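 After 22 h at 37 °C, SEAP secretion was measured from human TLR7-, TLR8- or TLR9-expressing HEK-Blue reporter cells given compound (0.05 nM–50 μM) 30 min before agonist: 7.5 μM gardiquimod, 15.9 μM R848 or 5 nM ODN2006 respectively. Percent inhibition referenced to agonist-plus-DMSO and known-inhibitor wells.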

[2] = biological target: T2, human TLR7 (Homo sapiens, UniProt Q9NYK1); test: TLR7 inhibition reporter assay (HEK-Blue cells, SEAP reporter, gardiquimod stimulation); settings: HEK-Blue cells overexpressing human TLR7, SEAP reporter, gardiquimod 7.5 μM
T2 construct: host or cells: HEK-Blue cells (HEK293-derived reporter line)
T2 sequence (Q9NYK1 27-1049): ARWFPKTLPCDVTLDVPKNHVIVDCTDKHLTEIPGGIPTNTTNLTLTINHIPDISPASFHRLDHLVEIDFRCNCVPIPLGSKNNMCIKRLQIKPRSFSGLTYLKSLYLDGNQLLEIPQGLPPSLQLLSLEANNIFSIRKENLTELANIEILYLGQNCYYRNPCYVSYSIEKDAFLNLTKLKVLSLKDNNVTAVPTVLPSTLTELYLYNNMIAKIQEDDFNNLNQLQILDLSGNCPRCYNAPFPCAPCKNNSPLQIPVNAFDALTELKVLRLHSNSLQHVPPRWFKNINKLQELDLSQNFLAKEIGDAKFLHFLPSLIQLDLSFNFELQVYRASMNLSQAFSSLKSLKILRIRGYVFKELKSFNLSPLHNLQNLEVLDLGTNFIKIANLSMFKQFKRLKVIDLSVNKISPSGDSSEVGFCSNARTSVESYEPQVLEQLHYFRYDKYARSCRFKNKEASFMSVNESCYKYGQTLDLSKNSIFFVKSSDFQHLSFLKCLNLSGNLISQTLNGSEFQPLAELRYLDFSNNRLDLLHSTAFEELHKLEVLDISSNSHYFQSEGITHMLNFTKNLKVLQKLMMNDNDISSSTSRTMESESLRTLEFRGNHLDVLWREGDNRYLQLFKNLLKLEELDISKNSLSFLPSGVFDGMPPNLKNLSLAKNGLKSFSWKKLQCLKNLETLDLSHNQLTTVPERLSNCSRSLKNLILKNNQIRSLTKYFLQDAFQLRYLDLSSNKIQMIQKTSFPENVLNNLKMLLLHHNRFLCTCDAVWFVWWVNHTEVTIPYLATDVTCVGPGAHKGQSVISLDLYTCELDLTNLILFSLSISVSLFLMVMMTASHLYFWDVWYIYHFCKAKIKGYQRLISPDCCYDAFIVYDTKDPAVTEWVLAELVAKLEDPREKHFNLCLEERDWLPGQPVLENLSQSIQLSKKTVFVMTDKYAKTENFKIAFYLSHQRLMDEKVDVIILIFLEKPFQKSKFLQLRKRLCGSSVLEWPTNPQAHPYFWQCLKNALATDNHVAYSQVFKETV
Outline: as §1

[3] = biological target: T3, human TLR8 (Homo sapiens, UniProt Q9NR97); test: TLR8 inhibition reporter assay (HEK-Blue cells, SEAP reporter, R848 stimulation); settings: HEK-Blue cells overexpressing human TLR8, SEAP reporter, R848 15.9 μM
T3 construct: host or cells: HEK-Blue cells (HEK293-derived reporter line)
T3 sequence (Q9NR97 27-1041): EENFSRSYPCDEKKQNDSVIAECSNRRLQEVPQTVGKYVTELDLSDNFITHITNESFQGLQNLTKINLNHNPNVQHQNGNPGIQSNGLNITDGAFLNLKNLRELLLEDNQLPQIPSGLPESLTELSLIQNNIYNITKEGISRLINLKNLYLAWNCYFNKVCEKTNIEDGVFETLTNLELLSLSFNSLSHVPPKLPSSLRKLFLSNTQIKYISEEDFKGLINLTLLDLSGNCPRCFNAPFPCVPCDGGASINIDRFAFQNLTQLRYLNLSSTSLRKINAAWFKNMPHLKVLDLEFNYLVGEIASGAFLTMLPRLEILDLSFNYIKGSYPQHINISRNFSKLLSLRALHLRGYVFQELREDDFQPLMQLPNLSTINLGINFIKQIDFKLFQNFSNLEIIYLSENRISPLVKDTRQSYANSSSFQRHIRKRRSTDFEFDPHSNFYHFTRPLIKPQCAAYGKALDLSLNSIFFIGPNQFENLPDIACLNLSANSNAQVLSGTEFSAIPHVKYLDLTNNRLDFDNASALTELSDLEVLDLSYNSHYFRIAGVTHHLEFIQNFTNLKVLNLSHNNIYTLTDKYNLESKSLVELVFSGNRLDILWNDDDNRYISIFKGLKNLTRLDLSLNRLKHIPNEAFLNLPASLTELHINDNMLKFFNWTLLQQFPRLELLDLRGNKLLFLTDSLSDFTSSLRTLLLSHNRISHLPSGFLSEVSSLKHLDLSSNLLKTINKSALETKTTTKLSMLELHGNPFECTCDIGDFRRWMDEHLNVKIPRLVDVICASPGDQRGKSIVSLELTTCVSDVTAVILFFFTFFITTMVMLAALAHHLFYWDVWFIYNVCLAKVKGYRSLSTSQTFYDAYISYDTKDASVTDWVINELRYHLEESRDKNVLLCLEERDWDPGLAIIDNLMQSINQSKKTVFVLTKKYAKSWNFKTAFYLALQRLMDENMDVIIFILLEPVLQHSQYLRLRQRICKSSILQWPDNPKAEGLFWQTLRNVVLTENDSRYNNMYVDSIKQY
Outline: as §1

IC50 [1] [nM]	IC50 [2] [nM]	IC50 [3] [nM]	Compound
1000 to 50000	100 to 1000	100 to 1000	CNCCN1CCC(c2ccc3[nH]c(-c4ccc5c(c4)OCO5)c(C)c3c2)CC1 [Example 670, 2-(4-(2-(benzo[d][1,3]dioxol-5-yl)-3-methyl-1H-indol-5-yl)piperidin-1-yl)-N-methylethan-1-amine]
1000 to 50000	1000 to 50000	1000 to 50000	CC(C)c1c(-c2ccnc3[nH]c(=O)oc23)[nH]c2ccc(C3CCNCC3)cc12 [Example 58, 7-(3-isopropyl-5-(piperidin-4-yl)-1H-indol-2-yl)oxazolo[4,5-b]pyridin-2(3H)-one]
1000 to 50000	> 3130	> 3130	CC(C)c1c(-c2cnc3ccnn3c2)[nH]c2ccc(C3CCN(C4COC4)CC3)cc12 [Example 713, 6-(3-isopropyl-5-(1-(oxetan-3-yl)piperidin-4-yl)-1H-indol-2-yl)pyrazolo[1,5-a]pyrimidine]
100 to 1000	< 100	< 100	CC(C)c1c(-c2ccnc3[nH]ncc23)[nH]c2cc(F)c(C3CCNCC3)cc12 [Example 253, 4-(6-fluoro-3-isopropyl-5-(piperidin-4-yl)-1H-indol-2-yl)-1H-pyrazolo[3,4-b]pyridine]
1000 to 50000	< 100	< 100	CC(C)c1c(-c2ccnc3[nH]ncc23)[nH]c2ccc(C3CCNCC3F)cc12 (stereo not drawn) [Example 172, 4-(5-(3-fluoropiperidin-4-yl)-3-isopropyl-1H-indol-2-yl)-1H-pyrazolo[3,4-b]pyridine]
100 to 1000	< 100	< 100	COc1ccc(CN2CCC(c3ccc4[nH]c(-c5ccc6nccn6c5)c(C(C)C)c4c3)CC2)cn1 [Example 935, 6-(3-isopropyl-5-(1-((6-methoxypyridin-3-yl)methyl)piperidin-4-yl)-1H-indol-2-yl)imidazo[1,2-a]pyridine]
1000 to 50000	1000 to 50000	> 3130	Cc1cc(-c2[nH]c3ccc(C4CCNCC4)cc3c2C(C)C)cc2c(O)c(C#N)cnc12 [Example 107, 4-hydroxy-6-(3-isopropyl-5-(piperidin-4-yl)-1H-indol-2-yl)-8-methylquinoline-3-carbonitrile]
> 50000	< 100	100 to 1000	Cc1cc(-c2[nH]c3ccc(C4CCN(S(=O)(=O)CCO)CC4)cc3c2C(C)C)cn2nnnc12 [Example 616, 2-((4-(3-isopropyl-2-(8-methyltetrazolo[1,5-a]pyridin-6-yl)-1H-indol-5-yl)piperidin-1-yl)sulfonyl)ethan-1-ol]
100 to 1000	1000 to 50000	100 to 1000	CCc1c(-c2ccnc3c(N)noc23)[nH]c2ccc(C3CCNCC3)cc12 [Example 239, 7-(3-ethyl-5-(piperidin-4-yl)-1H-indol-2-yl)isoxazolo[4,5-b]pyridin-3-amine]
100 to 1000	< 100	< 100	CC(C)c1c(-c2ccnc3[nH]ncc23)[nH]c2ccc(C3CCN(CCN)CC3)cc12 [Example 655, 2-(4-(3-isopropyl-2-(1H-pyrazolo[3,4-b]pyridin-4-yl)-1H-indol-5-yl)piperidin-1-yl)ethan-1-amine]
1000 to 50000	< 100	< 100	CC(C)c1c(-c2cn(C)c3ncccc23)[nH]c2ccc(C3CCN(CC#N)CC3)cc12 [Example 958, 2-(4-(3-isopropyl-2-(1-methyl-1H-pyrrolo[2,3-b]pyridin-3-yl)-1H-indol-5-yl)piperidin-1-yl)acetonitrile]
100 to 1000	< 100	< 100	Cc1c(-c2ccnc3[nH]nc(C)c23)[nH]c2ccc(C3CCNCC3)cc12 [Example 218, 3-methyl-4-(3-methyl-5-(piperidin-4-yl)-1H-indol-2-yl)-1H-pyrazolo[3,4-b]pyridine]
100 to 1000	< 100	< 100	Cc1cc(-c2[nH]c3ccc(C4CCN(CC(C)(C)O)CC4)cc3c2C(C)C)cn2ccnc12 [Example 774, 1-(4-(3-isopropyl-2-(8-methylimidazo[1,2-a]pyridin-6-yl)-1H-indol-5-yl)piperidin-1-yl)-2-methylpropan-2-ol]
100 to 1000	100 to 1000	100 to 1000	CC(C)c1c(-c2cnc3nccn3c2)[nH]c2ccc(C3CCN(CC(=O)N(C)C)CC3)cc12 [Example 363, 2-(4-(2-(imidazo[1,2-a]pyrimidin-6-yl)-3-isopropyl-1H-indol-5-yl)piperidin-1-yl)-N,N-dimethylacetamide]
> 50000	100 to 1000	100 to 1000	COc1ccc2nc(Cl)c(CN3CCC(c4ccc5[nH]c(-c6ccnc7[nH]ncc67)c(C(C)C)c5c4)CC3)cc2c1 [Example 902, 2-chloro-3-((4-(3-isopropyl-2-(1H-pyrazolo[3,4-b]pyridin-4-yl)-1H-indol-5-yl)piperidin-1-yl)methyl)-6-methoxyquinoline]
